Assay results as given in patent US9980943B2, “Methods of treating muscular dystrophy” (BOARD OF REGENTS OF THE NEVADA SYSTEM OF HIGHER EDUCATION, …, priority 2013, dated 2018).

Key:
Type in all cases: cell-based, mouse
[1] = tested on: α7 integrin (LacZ reporter in α7βgal+/− myoblasts); test: Myoblast α7+/LacZ integrin FDG assay (Burkin assay in myoblasts, 96-well); details: α7+/LacZ myoblasts, 96-well
[2] = tested on: α7 integrin (LacZ reporter in α7+/LacZ myotubes); test: Myotube α7 integrin FDG assay (Burkin assay in myotubes, 96-well); details: myotubes
[3] = tested on: β-galactosidase in CMV-LacZ C2C12 myoblasts; test: CMV-LacZ secondary screen in C2C12 myoblasts (β-Gal stabilizing assay); details: CMV-LacZ C2C12 myoblasts
Outline: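 β-gal stabilization was measured in C2C12 myoblasts or myotubes stably transfected with a CMV-driven LacZ construct, using the FDG β-gal assay. Compounds were tested in dose-response at 0.5, 1, 5, 10, 20 and 40 μM, with two replicates per point.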

[4] = tested on: β-galactosidase in CMV-LacZ C2C12 myotubes; test: CMV-LacZ secondary screen in C2C12 myotubes (β-Gal stabilizing assay); details: C2C12 CMV-LacZ myotubes, fold relative to DMSO
Outline: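 A secondary screen identifies compounds that stabilize β-gal independently of the native promoter, using CMV-LacZ C2C12 cells. Curves span 0.5–40 μM at six levels, in duplicate.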

SMILES | Burkin Assay in Myoblasts, signal relative to DMSO ([1]; 0.5 uM) | Burkin Assay in Myoblasts, signal relative to DMSO ([1]; 1 uM) | Burkin Assay in Myoblasts, signal relative to DMSO ([1]; 5 uM) | Burkin Assay in Myoblasts, signal relative to DMSO ([1]; 10 uM) | Burkin Assay in Myoblasts, signal relative to DMSO ([1]; 20 uM) | Burkin Assay in Myoblasts, signal relative to DMSO ([1]; 40 uM) | Burkin Assay in Myotubes, α7 integrin LacZ reporter signal relative to DMSO ([2]; 0.5 uM) | Burkin Assay in Myotubes, α7 integrin LacZ reporter signal relative to DMSO ([2]; 1 uM) | Burkin Assay in Myotubes, α7 integrin LacZ reporter signal relative to DMSO ([2]; 5 uM) | Burkin Assay in Myotubes, α7 integrin LacZ reporter signal relative to DMSO ([2]; 10 uM) | Burkin Assay in Myotubes, α7 integrin LacZ reporter signal relative to DMSO ([2]; 20 uM) | Burkin Assay in Myotubes, α7 integrin LacZ reporter signal relative to DMSO ([2]; 40 uM) | CMV-LACZ in Myoblasts (β-galactosidase activity relative to DMSO) ([3]; 0.5 uM) | CMV-LACZ in Myoblasts (β-galactosidase activity relative to DMSO) ([3]; 1 uM) | CMV-LACZ in Myoblasts (β-galactosidase activity relative to DMSO) ([3]; 5 uM) | CMV-LACZ in Myoblasts (β-galactosidase activity relative to DMSO) ([3]; 10 uM) | CMV-LACZ in Myoblasts (β-galactosidase activity relative to DMSO) ([3]; 20 uM) | CMV-LACZ in Myoblasts (β-galactosidase activity relative to DMSO) ([3]; 40 uM) | CMV-LACZ in Myotubes, signal relative to DMSO ([4]; 0.5 uM) | CMV-LACZ in Myotubes, signal relative to DMSO ([4]; 1 uM) | further results
Cn1cc(CN2CCC(C(=O)Nc3cccc(-c4cscn4)c3)CC2)cn1 [MLS001105912-01] | 1.162 | 1.057 | 1.029 | 1.246 | 0.6025 | 0.4631 | 0.9483 | 1.061 | 0.9467 | 1.1322 | 0.8299 | 1.003 | 1.0725 | 1.0321 | 1.0003 | 0.9597 | 0.5323 | 0.3873 | 1.1391 | 0.9618 | CMV-LACZ in Myotubes, signal relative to DMSO ([4]; 5 uM): 0.9313; CMV-LACZ in Myotubes, signal relative to DMSO ([4]; 10 uM): 1.0857; CMV-LACZ in Myotubes, signal relative to DMSO ([4]; 20 uM): 1.1910; CMV-LACZ in Myotubes, signal relative to DMSO ([4]; 40 uM): 1.8130
NS(=O)(=O)c1ccc(NC(=O)CN2CCc3ccccc32)cc1 [MLS000850522-01] | 0.7993 | 0.9332 | 1.307 | 1.003 | 0.8743 | 0.8805 | 0.9439 | 0.9058 | 1.11 | 0.9263 | 0.9416 | 0.9324 | 0.8880 | 1.3763 | 0.8809 | 0.8671 | 0.8358 | 1.0091 | 0.8848 | 0.8933 | CMV-LACZ in Myotubes, signal relative to DMSO ([4]; 5 uM): 1.1090; CMV-LACZ in Myotubes, signal relative to DMSO ([4]; 10 uM): 1.0751; CMV-LACZ in Myotubes, signal relative to DMSO ([4]; 20 uM): 1.0580; CMV-LACZ in Myotubes, signal relative to DMSO ([4]; 40 uM): 1.0200
